ChEMBL document CHEMBL1201862, “PubChem BioAssay data set” (2004)
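Following 48 hours of exposure in 96-well plates, responses at five concentrations were used to interpolate endpoints linearly. The concentration for 50% growth inhibition is given as GI50.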 Active and inactive are the calls of the source. No stated cut-off is given here; in the data, active = GI50 up to about 1.1 µM and inactive = higher.

Columns and labels:
Assay in all cases: NCI anticancer screen, dose series, 48 h
NCI-H460 = system: NCI-H460
HCT-15 = system: HCT-15
SF-539 = system: SF-539
U-251 = system: U-251
DU-145 = system: DU-145
MDA-MB-435 = system: MDA-MB-435
SR = system: SR
UO-31 = system: UO-31
SK-MEL-2 = system: SK-MEL-2
K562 = system: K562
UACC-62 = system: UACC-62
OVCAR-3 = system: OVCAR-3
M14 = system: M14
SK-MEL-5 = system: SK-MEL-5
MCF7 = system: MCF7
UACC-257 = system: UACC-257
MDA-MB-231 = system: MDA-MB-231
786-0 = system: 786-0
SK-OV-3 = system: SK-OV-3
MDA-N = system: MDA-N

Row | SMILES | GI50 (NCI-H460) | GI50 (HCT-15) | GI50 (SF-539) | GI50 (U-251) | GI50 (DU-145) | GI50 (MDA-MB-435) | GI50 (SR) | GI50 (UO-31) | GI50 (SK-MEL-2) | GI50 (K562) | GI50 (UACC-62) | GI50 (OVCAR-3) | GI50 (M14) | GI50 (SK-MEL-5) | GI50 (MCF7) | GI50 (UACC-257) | GI50 (MDA-MB-231) | GI50 (786-0) | GI50 (SK-OV-3) | GI50 (MDA-N)
1 | Nc1ccc(S(=O)(=O)C23CC4CC(CC(C4)C2)C3)cc1 | 74.3 µM (inactive) | > 100 µM | > 100 µM (inactive) | > 100 µM (inactive) | 78 µM (inactive) | 72.9 µM (inactive) | 61.7 µM (inactive) | > 100 µM (inactive) | > 100 µM (inactive) | 89.5 µM (inactive) | > 100 µM (inactive) | 77.8 µM (inactive) | > 100 µM (inactive) | 4.49 µM (inactive) | > 100 µM (inactive) | > 100 µM (inactive) | > 100 µM (inactive) | > 100 µM (inactive) | > 100 µM (inactive) | 
2 | COc1ccccc1/N=N/C(=N/NC(=O)c1ccc(C)cc1)c1ccc(N(CCC#N)CCC#N)cc1OC | 29.5 µM (inactive) | 42.3 µM |  | 32.5 µM (inactive) | 40.8 µM (inactive) | 29.1 µM (inactive) |  | 38.5 µM (inactive) | 19.8 µM (inactive) | 31.3 µM (inactive) | 38.3 µM (inactive) | 29 µM (inactive) | 29.4 µM (inactive) | 37.8 µM (inactive) | 13.4 µM (inactive) | 38.3 µM (inactive) | 24.9 µM (inactive) | 31.7 µM (inactive) | 37.1 µM (inactive) | 23.2 µM (inactive)
3 | CC(=O)O[C@H]1[C@@H](N2CCN(C)CC2)C[C@H]2[C@@H]3CC=C4C[C@@H](N5CCCC5)CC[C@]4(C)[C@H]3CC[C@@]21C | 60.5 µM (inactive) | 26.1 µM | 15 µM (inactive) | 50 µM (inactive) |  | 24.6 µM (inactive) | < 0.01 µM (active) | 34.9 µM (inactive) | > 100 µM (inactive) | 11.2 µM (inactive) | 59.4 µM (inactive) | 88.7 µM (inactive) | 17.8 µM (inactive) | 25.9 µM (inactive) | > 100 µM (inactive) | 21.1 µM (inactive) | 63 µM (inactive) | 25.8 µM (inactive) | > 100 µM (inactive) | 26.1 µM (inactive)
4 | CN1C/C(=C\c2ccc(C(=O)O)cc2)C(=O)/C(=C/c2ccc(C(=O)O)cc2)C1 | > 100 µM (inactive) | > 100 µM | > 100 µM (inactive) | > 100 µM (inactive) |  |  | > 100 µM (inactive) | > 100 µM (inactive) | > 100 µM (inactive) | > 100 µM (inactive) | > 100 µM (inactive) | > 100 µM (inactive) | > 100 µM (inactive) | > 100 µM (inactive) |  | > 100 µM (inactive) |  | > 100 µM (inactive) | > 100 µM (inactive) | 
5 | COC(=O)C(C(=O)C(=O)Nc1c(C)cccc1C(C)(C)C)c1nc2ccc(Cl)cc2nc1O (stereo not given) | > 100 µM (inactive) | > 100 µM | > 100 µM (inactive) | > 100 µM (inactive) |  | > 100 µM (inactive) | > 100 µM (inactive) | > 100 µM (inactive) | > 100 µM (inactive) | > 100 µM (inactive) | > 100 µM (inactive) | > 100 µM (inactive) | > 100 µM (inactive) | > 100 µM (inactive) | > 100 µM (inactive) | > 100 µM (inactive) | > 100 µM (inactive) | > 100 µM (inactive) | > 100 µM (inactive) | 
6 | O=NN1CCCS1(=O)=O | > 100 µM (inactive) | > 100 µM | > 100 µM (inactive) | > 100 µM (inactive) | > 100 µM (inactive) |  | > 100 µM (inactive) | 95.1 µM (inactive) |  | > 100 µM (inactive) | > 100 µM (inactive) | > 100 µM (inactive) | > 100 µM (inactive) | > 100 µM (inactive) | > 100 µM (inactive) | > 100 µM (inactive) | > 100 µM (inactive) | > 100 µM (inactive) | > 100 µM (inactive) | 
7 | O=C(CNC(=O)c1ccccc1)Oc1c(Cl)c(Cl)c(Cl)c(Cl)c1Cl | 38.5 µM (inactive) | 30.6 µM | 28.2 µM (inactive) | 26.7 µM (inactive) | 23.4 µM (inactive) | 36.1 µM (inactive) | 32.4 µM (inactive) | 22 µM (inactive) | 21 µM (inactive) | 28.2 µM (inactive) | 21.9 µM (inactive) | 25.4 µM (inactive) | 64.9 µM (inactive) |  | 40.2 µM (inactive) | 19.6 µM (inactive) | 22.9 µM (inactive) | 50.5 µM (inactive) | 72.4 µM (inactive) | 
8 | Cc1cc(S(=O)(=O)Nc2nc(N)nc(N(C)C)n2)c(SCC(=O)O)cc1Cl | > 10 µM (inactive) | > 10 µM | > 10 µM (inactive) | > 10 µM (inactive) | > 10 µM (inactive) |  | > 10 µM (inactive) | > 10 µM (inactive) | > 10 µM (inactive) | > 10 µM (inactive) |  | > 10 µM (inactive) | > 10 µM (inactive) | > 10 µM (inactive) | > 10 µM (inactive) | > 10 µM (inactive) |  | > 10 µM (inactive) | > 10 µM (inactive) | > 10 µM (inactive)
9 | CN1CCN(CCCN2c3ccccc3Sc3ccc(C(F)(F)F)cc32)CC1 | 2.24 µM (inactive) | 4.33 µM | 4.65 µM (inactive) | 4.95 µM (inactive) | 10.5 µM (inactive) | 2.92 µM (inactive) |  | 6.32 µM (inactive) | 4.18 µM (inactive) |  | 2.06 µM (inactive) |  | 1.72 µM (inactive) | 1.91 µM (inactive) | 4.61 µM (inactive) | 1.91 µM (inactive) |  | 4.14 µM (inactive) | 13.5 µM (inactive) | 3.2 µM (inactive)
10 | Cn1ccc(C(=O)NCCOCCNC(=O)c2ccn(C)c(=O)c2O)c(O)c1=O | > 100 µM (inactive) | > 100 µM |  | > 100 µM (inactive) | > 100 µM (inactive) | > 100 µM (inactive) |  | > 100 µM (inactive) | > 100 µM (inactive) |  | > 100 µM (inactive) |  |  | > 100 µM (inactive) |  | > 100 µM (inactive) | > 100 µM (inactive) | > 100 µM (inactive) |  | > 100 µM (inactive)
11 | COC(=O)[C@H](Cc1ccccc1)NC(=O)/C(=C/C(C)C)NC(=O)[C@H](CCSC)NC=O | > 100 µM (inactive) | > 100 µM | > 100 µM (inactive) | > 100 µM (inactive) |  |  | > 100 µM (inactive) | > 100 µM (inactive) | > 100 µM (inactive) | > 100 µM (inactive) | > 100 µM (inactive) | > 100 µM (inactive) | > 100 µM (inactive) | > 100 µM (inactive) |  | > 100 µM (inactive) |  | > 100 µM (inactive) | > 100 µM (inactive) | 
12 | CCOC(=O)/C=C/n1c2ccccc2c(=O)c2cc(OC)ccc21 | > 100 µM (inactive) | 39.9 µM | > 100 µM (inactive) | 71.8 µM (inactive) |  |  | 28.2 µM (inactive) | > 100 µM (inactive) | > 100 µM (inactive) | > 100 µM (inactive) | > 100 µM (inactive) | > 100 µM (inactive) | > 100 µM (inactive) | > 100 µM (inactive) |  | > 100 µM (inactive) |  | > 100 µM (inactive) | > 100 µM (inactive) | 
13 | COc1ccccc1Nc1nc(NNC(=O)Cc2ccccc2)nc(NNC(=O)c2ccncc2)n1 | > 10 µM (inactive) | > 10 µM | > 10 µM (inactive) | > 10 µM (inactive) | > 10 µM (inactive) |  | > 10 µM (inactive) |  |  | > 10 µM (inactive) | > 10 µM (inactive) |  | > 10 µM (inactive) | > 10 µM (inactive) | > 10 µM (inactive) | > 10 µM (inactive) | > 10 µM (inactive) | > 10 µM (inactive) | > 10 µM (inactive) | > 10 µM (inactive)
14 | COC(=O)C1=C(OC)c2cc3c(cc2C(c2cc(OC)c(OC)c(OC)c2)C1C(=O)OC)OCO3 (stereo not given) | > 100 µM (inactive) | > 100 µM | > 100 µM (inactive) | > 100 µM (inactive) |  |  | 96.4 µM (inactive) | > 100 µM (inactive) | > 100 µM (inactive) | > 100 µM (inactive) | > 100 µM (inactive) | > 100 µM (inactive) | > 100 µM (inactive) | > 100 µM (inactive) |  | > 100 µM (inactive) |  | > 100 µM (inactive) | > 100 µM (inactive) | 
15 | CO/N=C(\C(=O)O/C(=N/C1CCCCC1)NC1CCCCC1)c1csc(NC(c2ccccc2)(c2ccccc2)c2ccccc2)n1 | > 10 µM (inactive) | > 10 µM | > 10 µM (inactive) | > 10 µM (inactive) | > 10 µM (inactive) |  | > 10 µM (inactive) | > 10 µM (inactive) | > 10 µM (inactive) | > 10 µM (inactive) |  | > 10 µM (inactive) | > 10 µM (inactive) | > 10 µM (inactive) | > 10 µM (inactive) | > 10 µM (inactive) |  | > 10 µM (inactive) | > 10 µM (inactive) | > 10 µM (inactive)
16 | CC1=C(C(=O)NCCc2ccccc2)CC(C(=O)NCCc2ccccc2)=C(C)N1 | 82.4 µM (inactive) | > 100 µM | > 100 µM (inactive) | > 100 µM (inactive) | > 100 µM (inactive) | > 100 µM (inactive) |  | 65.8 µM (inactive) | > 100 µM (inactive) | 44.3 µM (inactive) | > 100 µM (inactive) | 88.3 µM (inactive) | > 100 µM (inactive) |  | > 100 µM (inactive) | > 100 µM (inactive) | > 100 µM (inactive) | 87.5 µM (inactive) | > 100 µM (inactive) | 
17 | C/N=c1\ss/c(=N\C(=S)N(C)C)n1-c1ccccc1 | > 100 µM (inactive) | > 100 µM | 31 µM (inactive) | 67 µM (inactive) |  |  | > 100 µM (inactive) | > 55.7 µM (inactive) | > 64 µM (inactive) | > 100 µM (inactive) | > 22.9 µM (inactive) | > 100 µM (inactive) | > 100 µM (inactive) | > 20.7 µM (inactive) |  | > 100 µM (inactive) |  | 38.3 µM (inactive) | > 100 µM (inactive) | 
